Assay results published in publication PMC2805098 (Biochemistry, 2009).
Where “and” joins values, the source holds several entries; their conditions need not be identical. Equal entries are not always repeated. Where two headings read alike, the source gives them in different places.

Assays:
Phe223Leu MTHFR [1] = molecular target: T1, Phe223Leu MTHFR (Escherichia coli, UniProt P0AEZ1, F223L); assay: NADH-CH2-H4folate oxidoreductase assay, steady-state; type: biochemical
Phe223Leu MTHFR [2] = molecular target: T1, Phe223Leu MTHFR; assay: Oxidative half-reaction with CH2-H4folate, stopped-flow; type: biochemical
wild-type MTHFR [3] = conditions: 25 °C, pH 7.2, cited from earlier work
Phe223Ala MTHFR [4] = molecular target: T2, Phe223Ala MTHFR (Escherichia coli, UniProt P0AEZ1, F223A); assay: NADH-CH2-H4folate oxidoreductase assay, steady-state
Phe223Ala MTHFR [5] = molecular target: T2, Phe223Ala MTHFR; assay: Oxidative half-reaction with CH2-H4folate, stopped-flow; type: biochemical
wild-type MTHFR [6] = conditions: 25 °C, cited from earlier work
Phe223Ala MTHFR [7] = molecular target: T2, Phe223Ala MTHFR; assay: Reaction of reduced enzyme with menadione, stopped-flow; type: biochemical; conditions: […] μM menadione, within dead time of the instrument, data not shown
Phe223Leu MTHFR [8] = molecular target: T1, Phe223Leu MTHFR; assay: as above; type: biochemical; conditions: […] μM menadione, within dead time of the instrument, data not shown
Phe223Leu MTHFR [9] = molecular target: T1, Phe223Leu MTHFR; assay: NADH-menadione oxidoreductase assay, steady-state; type: biochemical
Phe223Leu MTHFR [10] = molecular target: T1, Phe223Leu MTHFR; assay: Reductive half-reaction with NADH, stopped-flow; type: biochemical
wild-type MTHFR [11] = conditions: 25 °C, pH 7.2; cited from earlier work
PheA2 = conditions: read-out: Km for NADH; 53 °C; cited from earlier work
HpaC = conditions: read-out: Km for NADH; 30 °C; cited from earlier work
Phe223Ala MTHFR [12] = molecular target: T2, Phe223Ala MTHFR; assay: NADH-menadione oxidoreductase assay, steady-state; type: biochemical; conditions: […] μM menadione, varying NADH, 25 °C, pH 7.2
Phe223Ala MTHFR [13] = molecular target: T2, Phe223Ala MTHFR; assay: Reductive half-reaction with NADH, stopped-flow; type: biochemical
wild-type MTHFR [14] = conditions: 25 °C, pH 7.2, cited from earlier work; remark: listed apart in the source
Phe223Leu MTHFR [15] = molecular target: T1, Phe223Leu MTHFR; assay: NADPH binding; conditions: data not shown
[16] = 25 °C, pH 7.2, anaerobic, 450 nm

**Q.** Which Ki (Phe223Leu MTHFR [1]) does the source give for `Nc1nc2c(c(=O)[nH]1)N1CN(c3ccc(C(=O)N[C@@H](CCC(=O)O)C(=O)O)cc3)C[C@H]1CN2` [CH2-H4folate, 5,10-methylenetetrahydrofolate] here?
**A.** 160 ± 27 µM

**Q.** And the “CH2-H4folate concentration above which inhibition was seen” value (Phe223Leu MTHFR [1]; 1000 μM NADH)?
**A.** exceeding 100 μM

**Q.** What about the “theoretical turnover number calculated from the two half-reactions” value (Phe223Leu MTHFR [1]; eq 8, ping-pong bi-bi) of the same compound?
**A.** 17 s⁻¹

**Q.** And the Kd (Phe223Leu MTHFR [2])?
**A.** 9 ± 2 µM

**Q.** And the “increase in rate of oxidation compared to slow phase of wild-type enzyme” value (Phe223Leu MTHFR [2])?
**A.** 3 fold

**Q.** What about the kcat (wild-type MTHFR [3]) of the same compound?
**A.** 10.4 ± 1.0 s⁻¹

**Q.** And the Ki (wild-type MTHFR [3]; read-out: Ki for CH2-H4folate)?
**A.** 320 ± 25 µM

**Q.** What about the Km (wild-type MTHFR [3]; read-out: Km for CH2-H4folate) of the same compound?
**A.** 0.5 ± 0.1 µM

**Q.** And the “decrease in kcat compared to wild-type” value (Phe223Ala MTHFR [4])?
**A.** 4 fold

**Q.** And the kcat (Phe223Ala MTHFR [4]; anaerobic, 25 °C, pH 7.2)?
**A.** 2.9 s⁻¹ and 2.9 ± 0.5 s⁻¹

**Q.** And the “theoretical turnover number calculated from the two half-reactions” value (Phe223Ala MTHFR [4]; eq 9, slow phase of oxidation)?
**A.** 4.0 s⁻¹

**Q.** And the Kd (Phe223Ala MTHFR [5])?
**A.** 500 ± 230 µM

**Q.** And the “change in standard free binding energy for CH2-H4folate” value (Phe223Ala MTHFR [5])?
**A.** 2.3 kcal/mol

**Q.** What about the “decrease in affinity for CH2-H4folate compared to wild-type” value (Phe223Ala MTHFR [5]) of the same compound?
**A.** 45 fold

**Q.** What about the “slower rate of oxidation compared to slow phase of wild-type” value (Phe223Ala MTHFR [5]) of the same compound?
**A.** 2 fold

**Q.** What about the “k5’ maximal rate constant, slow phase” value (Phe223Ala MTHFR [5]; 25 °C, pH 7.2, anaerobic, slow phase (~16% of absorbance change)) of the same compound?
**A.** 4.5 ± 1.1 ^e s^−1

**Q.** What about the “k5’, slow phase” value (wild-type MTHFR [6]; pH 7.2, slow phase) of the same compound?
**A.** 10.3 ± 1.0 ^e s^−1

**Q.** What about the Kd (wild-type MTHFR [6]; read-out: Kd for CH2-H4folate, pH 7.2) of the same compound?
**A.** 11 ± 1 µM

**Q.** With `CC1=CC(=O)c2ccccc2C1=O` [menadione] as the compound, how does the “time of reaction of reduced enzyme with menadione” value (Phe223Ala MTHFR [7]) read?
**A.** ≤ 3 ms

**Q.** And the “time of reaction of reduced enzyme with menadione” value (Phe223Leu MTHFR [8])?
**A.** ≤ 3 ms

**Q.** Which “increase in Km for NADH compared to wild-type” value (Phe223Leu MTHFR [9]) does the source give for NADH here?
**A.** 7 fold

**Q.** And the kcat (Phe223Leu MTHFR [9]; […] μM menadione, varying NADH, 25 °C, pH 7.2)?
**A.** 31 ± 4 s⁻¹

**Q.** And the “increase in Kd for NADH over wild-type enzyme” value (Phe223Leu MTHFR [10])?
**A.** 14 fold

**Q.** And the “k2’ maximal observed rate constant for reduction” value (Phe223Leu MTHFR [10]; [16])?
**A.** 35 ± 1 s⁻¹

**Q.** What about the kcat (wild-type MTHFR [11]) of the same compound?
**A.** 55 ± 8.3 s⁻¹

**Q.** What about the Km (PheA2) of the same compound?
**A.** 8.8 µM

**Q.** What about the Km (HpaC) of the same compound?
**A.** 36.8 µM

**Q.** What about the kcat (Phe223Ala MTHFR [12]) of the same compound?
**A.** 22 ± 4 s⁻¹

**Q.** And the “k2’ maximal observed rate constant for reduction” value (Phe223Ala MTHFR [13]; [16])?
**A.** 40 ± 2 s⁻¹

**Q.** And the “change in standard free binding energy for NADH” value (Phe223Ala MTHFR [13]; at 298 K, from 40-fold increase in Kd)?
**A.** 2.2 kcal/mol

**Q.** What about the “k2’” value (wild-type MTHFR [14]) of the same compound?
**A.** 55 ± 6 s⁻¹

**Q.** And the Kd (wild-type MTHFR [14]; read-out: Kd for NADH)?
**A.** 32 ± 5 µM

**Q.** For NADPH, which “ability to bind NADPH” value (Phe223Leu MTHFR [15]) is on record?
**A.** no ability to bind NADPH
